Patent publication US20210386674A1, “MODIFIED RELEASE TABLET FORMULATIONS CONTAINING PHOSPHODIESTERASE INHIBITOR” (UNION therapeutics A/S, priority 2019, published 2021)

Assays:
Solubility of Compound A = type: physicochemical
[1] = Oral absorption window in the gastrointestinal tract; type: in vivo; settings: given orally; upper part of the gastrointestinal tract

SMILES: O=C(Cc1c(Cl)c[n+]([O-])cc1Cl)c1ccc(OC(F)F)c2c1OC1(CCS(=O)(=O)CC1)O2 [Compound A, 2-(3,5-Dichloro-1-oxido-pyridine-4-yl)-1-(7-difluoro-methoxy-2′,3′,5′,6-tetrahydro-spiro[1,3-benzodioxole-2,4-(4H)-thiopyran-1′,1′-dioxide]-4-yl)ethanone]
- Solubility (Solubility of Compound A): poorly soluble
- Absorption window [1]: very narrow absorption window
